In patent US20120121540A1 (priority 2007, published 2012):

Assay: HCV replicon assay (luciferase reporter, ET cell line)
Format: cell-based
Settings: Hepatitis C virus, HCV replicon luciferase activity in ET cells
Procedure, shortened: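 ET cells carry a stable luciferase-ubiquitin-neo/NS3-5B subgenomic HCV replicon with adaptive mutations. Compounds (0.1 nM to […], 0.5% DMSO) were added 24 h after plating, and luciferase was read 48-72 h later. EC50 came from 10-point 2-fold dilutions fitted to a Hill equation; TC50 was measured in parallel by WST-1.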

O=C(NCc1cccs1)c1nc2c(C(F)(F)F)cc(-c3cn[nH]n3)cn2c1Cl [Compound 308, 3-Chloro-6-(2H-[1,2,3]triazol-4-yl)-8-trifluoromethyl-imidazo[1,2-a]pyridine-2-carboxylic Acid (thiophen-2-ylmethyl)-amide] gave an inhibition at 10 µM of 88.2%.

With N#Cc1cc(C(F)(F)F)c2nc(C(=O)NCc3cccs3)c(Cl)n2c1 [Compound 309, 3-Chloro-6-cyano-8-trifluoromethyl-imidazo[1,2-a]pyridine-2-carboxylic Acid (thiophen-2-ylmethyl)-amide] the inhibition at 10 µM was 1.8%.

For O=C(NCc1cccs1)c1nc2c(C(F)(F)F)cc(-c3ncon3)cn2c1Cl [Compound 311, 3-Chloro-6-[1,2,4]oxadiazol-3-yl-8-trifluoromethyl-imidazo[1,2-a]pyridine-2-carboxylic Acid (thiophen-2-ylmethyl)-amide], the inhibition at 10 µM was 83.2%.

COC(=O)c1cc(C(F)(F)F)c2nc(C(=O)NCc3cccs3)c(Cl)n2c1 [Compound 312, 3-Chloro-2-[(thiophen-2-ylmethyl)-carbamoyl]-8-trifluoromethyl-imidazo[1,2-a]pyridine-6-carboxylic Acid Methyl Ester] showed an inhibition at 10 µM of 76.2%.

O=C(NCc1cccs1)c1cn2cc(-c3cccc(F)c3)cc(C(F)(F)F)c2n1 [Compound 314, 6-(3-Fluoro-phenyl)-8-trifluoromethyl-imidazo[1,2-a]pyridine-2-carboxylic Acid (thiophen-2-ylmethyl)-amide] gave an inhibition at 10 µM of 49.6%.

For O=C(c1nc2c(C(F)(F)F)cc(-c3ccco3)cn2c1Cl)N1CCC(c2ccc(F)cc2)C1 (stereo not shown) [Compound 316, (3-Chloro-6-furan-2-yl-8-trifluoromethyl-imidazo[1,2-a]pyridin-2-yl)-[3-(4-fluoro-phenyl)-pyrrolidin-1-yl]-methanone], the inhibition at 10 µM was 89.2%.

For O=C(c1nc2c(C(F)(F)F)cc(-c3ccco3)cn2c1Cl)N1CCC(O)(c2ccccc2)C1 (stereo not shown) [Compound 317, (3-Chloro-6-furan-2-yl-8-trifluoromethyl-imidazo[1,2-a]pyridin-2-yl)-(3-hydroxy-3-phenyl-pyrrolidin-1-yl)-methanone], the inhibition at 10 µM was 94.6%.

With CN1CCN(C(=O)c2nc3c(C(F)(F)F)cc(-c4ccco4)cn3c2Cl)CC1c1ccccc1 (stereo not shown) [Compound 318, (3-Chloro-6-furan-2-yl-8-trifluoromethyl-imidazo[1,2-a]pyridin-2-yl)-(4-methyl-3-phenyl-piperazin-1-yl)-methanone] the inhibition at 10 µM was 62.4%.

For CN(C)CCN(Cc1cccs1)C(=O)c1nc2c(C(F)(F)F)cc(-c3ccco3)cn2c1Cl [Compound 319, 3-Chloro-6-furan-2-yl-8-trifluoromethyl-imidazo[1,2-a]pyridine-2-carboxylic Acid (2-dimethylamino-ethyl)-thiophen-2-ylmethyl-amide], the inhibition at 10 µM was 58.8%.

CN1CCN(C(=O)c2nc3c(C(F)(F)F)cc(-c4ccco4)cn3c2Cl)C(c2ccccc2)C1 (stereo not shown) [Compound 320, (3-Chloro-6-furan-2-yl-8-trifluoromethyl-imidazo[1,2-a]pyridin-2-yl)-(4-methyl-2-phenyl-piperazin-1-yl)-methanone] gave an inhibition at 10 µM of 0.6%.

O=C(NCCc1ccccc1)c1nc2c(C(F)(F)F)cc(-c3ccco3)cn2c1Cl [Compound 321, 3-Chloro-6-furan-2-yl-8-trifluoromethyl-imidazo[1,2-a]pyridine-2-carboxylic Acid phenethyl-amide] showed an inhibition at 10 µM of 78.2%.

With O=C(c1nc2c(C(F)(F)F)cc(-c3ccco3)cn2c1Cl)N1CCCC1c1ccccc1 (stereo not shown) [Compound 322, (3-Chloro-6-furan-2-yl-8-trifluoromethyl-imidazo[1,2-a]pyridin-2-yl)-(2-phenyl-pyrrolidin-1-yl)-methanone] the inhibition at 10 µM was 78.7%.

O=C(c1nc2c(C(F)(F)F)cc(-c3ccco3)cn2c1Cl)N1CCN(c2ccccc2)CC1 [Compound 323, (3-Chloro-6-furan-2-yl-8-trifluoromethyl-imidazo[1,2-a]pyridin-2-yl)-(4-phenyl-piperazin-1-yl)-methanone] showed an inhibition at 10 µM of 54.6%.
